Experimental data as given in paper PMC6796659, “Topoisomerase IB poisons induce histone H2A phosphorylation as a response to DNA damage in Leishmania infantum” (International Journal for Parasitology: Drugs and Drug …, 2019).

Assays:
[1] = test system: histone H2A (Thr128) in L. infantum promastigotes; experiment: Histone H2A phosphorylation (γH2A) by Western blot; assay type: cell-based, Leishmania infantum; settings: 10 μM, 0, 15, 60, 120 min
Protocol: To detect H2A phosphorylation by L. infantum promastigotes, parasites in exponential growing phase (5–6 x 10^6 cells/mL) were incubated at 26 °C with CPT derivatives and indenoisoquinolines at a final concentration in the supplemented 199 standard medium of 10 μM. Control cells were treated with the drug vehicle DMSO using concentrations below 0.1%. After 0, 15, 60 and 120-min incubations, promastigotes were harvested by centrifugation, washed twice in PBS and the pellet resuspended in lysis buffer containing 50 mM Tris (pH:7), 50 mM NaCl, 20 mM NaF, 0.1% Tween 20 and 2x protease inhibitors (PIERCE™ protease inhibitor mini tablets). Twenty micrograms of the different extracts were loaded onto 15% SDS-PAGE gels, electrophoresed and transferred to PVDF membranes (Immobilon-FL, Millipore) using a mini trans-blot electrophoretic transfer cell (Bio-Rad). Polyclonal γH2A antisera were used at a 1:2000 dilution and secondary goat anti-rabbit IgG IRDye680 (Li-Cor Biosciences) was used at a 1:15000 dilution. The peptide competition assay was done incubating the polyclonal γH2A antisera with 50 ng/mL of the appropriate peptide (with and without phosphorylation at Thr residue) in blocking buffer for 1 h at room temperature before blotting. Loading control was performed using a monoclonal α tubulin mouse antibody at 2 μg/mL (final concentration) and a goat anti-mouse IgG IRDye 800 (Li-Cor Biosciences) as secondary antibody. Bands were visualized in an Odissey® (Li-Cor Biosciences) infrared detection facility. The quantification of γH2A signal was done with Bio-Rad Quantity One Analysis Software.

human Top IB (hTopIB) = target: T1, human Top IB (hTopIB) (Homo sapiens, UniProt P11387); experiment: Relaxation of supercoiled pSK DNA by recombinant hTopIB; assay type: biochemical; settings: Table 1
T1 construct: made in house
T1 sequence (P11387 1-765): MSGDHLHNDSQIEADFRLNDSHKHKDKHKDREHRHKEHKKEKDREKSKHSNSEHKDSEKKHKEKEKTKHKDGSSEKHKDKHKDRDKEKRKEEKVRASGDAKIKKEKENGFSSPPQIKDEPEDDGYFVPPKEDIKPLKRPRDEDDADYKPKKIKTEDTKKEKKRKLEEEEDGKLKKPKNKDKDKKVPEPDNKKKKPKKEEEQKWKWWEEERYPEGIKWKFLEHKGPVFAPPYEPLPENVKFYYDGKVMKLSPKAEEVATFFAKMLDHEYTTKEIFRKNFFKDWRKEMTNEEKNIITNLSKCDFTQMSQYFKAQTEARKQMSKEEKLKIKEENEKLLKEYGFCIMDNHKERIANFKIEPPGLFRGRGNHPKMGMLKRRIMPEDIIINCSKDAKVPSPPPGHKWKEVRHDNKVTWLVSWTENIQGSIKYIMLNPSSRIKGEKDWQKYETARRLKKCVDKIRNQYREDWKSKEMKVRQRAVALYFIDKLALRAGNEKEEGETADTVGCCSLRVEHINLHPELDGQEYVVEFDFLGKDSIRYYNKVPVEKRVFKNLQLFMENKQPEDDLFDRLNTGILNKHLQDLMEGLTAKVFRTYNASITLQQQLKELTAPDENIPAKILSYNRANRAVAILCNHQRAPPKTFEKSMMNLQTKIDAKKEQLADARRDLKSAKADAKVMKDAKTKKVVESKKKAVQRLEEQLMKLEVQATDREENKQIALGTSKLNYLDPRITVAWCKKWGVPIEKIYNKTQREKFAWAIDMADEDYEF
Protocol: Expression and purification of LTopIB and hTopIB were carried out according to a previously standardized protocol ([Villa et al., 2003]). The effect of indenoisoquinolines (compounds 1 to 20) on recombinant LTopIB and hTopIB was determined by measuring the relaxation of negatively supercoiled pBluescript-SK DNA plasmid (pSK). Briefly, in a total volume of 20 μL, 100 U of recombinant TopIB were incubated with 0.5 μg of pSK DNA in 10 mM Tris-HCl buffer (pH 7.5), 5 mM MgCl2, 5 mM dithiothreitol (DTT), 0.1 mM EDTA, […] bovine serum albumin, and 150 mM KCl. Different concentrations of indenoisoquinolines were also added. Following a 4-min incubation period at 25 °C, reactions were stopped with 1% (w/v) SDS, and incubated for one extra hour at 37 °C in the presence of 1 mg/mL proteinase K. Subsequently, samples were extracted with 1 vol phenol-chloroform mixture and were loaded on a 1% agarose gel containing 0.1 μg/mL ethidium bromide. The gel was run for 16 h at 4 V/cm, and the images were acquired using a G-Box system (Syngene, United Kingdom).

## NCCCn1c2c(c3ccccc3c1=O)C(=O)c1ccccc1-2 [Compound 2]
[1]
  γH2A signal (H2A phosphorylation), Western blot: strong γH2A signaling
Human Top IB (hTopIB)
  hTopIB inhibition: ++ (inhibition at 10 μM)
